Results on 10 compounds are retold here after ChEMBL document CHEMBL1151083, “Synthesis & characterization of N-amino-glyphosate as a potent analog inhibitor of E. coli EPSP synthase” (Bioorg Med Chem Lett, 1993).

The target of assay [1] is T1, 3-phosphoshikimate 1-carboxyvinyltransferase (Escherichia coli K-12, UniProt P0A6D3).
T1 sequence (P0A6D3 whole entry): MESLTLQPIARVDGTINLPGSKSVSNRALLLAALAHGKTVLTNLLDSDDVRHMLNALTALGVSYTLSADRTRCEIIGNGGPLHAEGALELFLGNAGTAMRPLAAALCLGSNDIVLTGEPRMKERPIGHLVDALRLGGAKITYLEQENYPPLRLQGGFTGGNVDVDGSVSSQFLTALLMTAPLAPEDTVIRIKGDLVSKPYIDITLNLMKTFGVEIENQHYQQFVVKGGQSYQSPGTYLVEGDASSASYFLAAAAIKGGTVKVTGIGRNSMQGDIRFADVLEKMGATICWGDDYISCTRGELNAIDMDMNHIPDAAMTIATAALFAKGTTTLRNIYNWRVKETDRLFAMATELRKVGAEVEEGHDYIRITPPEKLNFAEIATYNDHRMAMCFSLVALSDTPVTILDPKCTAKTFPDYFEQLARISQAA
As to the kind of experiment: Tested for the inhibition against Escherichia coli 5-enolpyruvyl-shikimate-3-phosphate synthase versus phosphoenolpyruvate.

The target in assay [2] is T1, 3-phosphoshikimate 1-carboxyvinyltransferase. The experiment in a line: Tested for the inhibition against Escherichia coli 5-enolpyruvyl-shikimate-3-phosphate synthase.
Assay [3] deals with T2, 3-phosphoshikimate 1-carboxyvinyltransferase (Escherichia coli K-12) (UniProt P0A6D3).
T2 sequence (whole entry): T1 sequence (P0A6D3 whole entry)
Description: Tested for the dissociation rate against Escherichia coli 5-enolpyruvyl-shikimate-3-phosphate synthase

For assay [4], the target named is T2, 3-phosphoshikimate 1-carboxyvinyltransferase (Escherichia coli K-12). The source holds these as a separate data set.
Description: Tested for the rate of association against Escherichia coli 5-enolpyruvyl-shikimate-3-phosphate synthase
Assay [5] has as its target T1, 3-phosphoshikimate 1-carboxyvinyltransferase. As to the kind of experiment: Tested for the dissociation constant against Escherichia coli 5-enolpyruvyl-shikimate-3-phosphate synthase.

For the compound `O=NN(CC(=O)O)CP(=O)(O)O`, in assay [1], the affinity corresponds to a Ki of 2.2 µM. This counts as single-digit micromolar. On to `COC(=O)CNCP(=O)(O)O`, for which, in assay [2], the IC50 – broadly, the midpoint of a concentration-inhibition curve – is more than 1 µM. For the compound `O=C(O)CNCP(=O)(O)O`, in assay [3], the k off is 0.12 s⁻¹. This compound also showed a k on in assay [4] of 780000 M⁻¹ s⁻¹. In the case of `NC(CC(=O)O)CP(=O)(O)O` (stereo not given), the IC50 in assay [2] is more than 80 µM. Take `CN(CC(=O)O)CP(=O)(O)O`: in assay [1], the Ki (commonly a dissociation constant, usually derived from enzyme kinetics or from competition with a known ligand) was found to be 78 µM. This compound came in with an IC50 in assay [2] of 150 µM. On to `O=C(O)CNC[PH](=O)O`, for which the IC50 in assay [2] is 700 µM. For the compound `CC(NCP(=O)(O)O)C(=O)O` (stereo not given), in assay [2], the IC50 was more than 80 µM.

Regarding `CC(NCC(=O)O)P(=O)(O)O` (stereo not given), the IC50 in assay [2] is more than 80 µM.

As to `O=C(O)CN(O)CP(=O)(O)O`, in assay [1], the Ki worked out at 2.2 µM.

For `NN(CC(=O)O)CP(=O)(O)O`, the Ki in assay [1] stood at 0.61 µM. Moreover, the Kd (usually the free concentration of one partner at which half of the binding sites on the other are occupied at equilibrium, for simple one-to-one binding) in assay [5] was found to be 0.5 µM. The same compound displayed a k off in assay [3] of 0.16 s⁻¹. In assay [4], this compound registered a k on of 320000 M⁻¹ s⁻¹.
